Experiment [1] concerns the target TRPV1 (Homo sapiens, UniProt Q8NER1). Kind of experiment: Calcium imaging of TRPV1-transfected HEK293 cells. The format is cell-based. As to conditions: IA 100 μM, compared to vehicle. As for the experimental part: All error bars indicate SEM; p values in all subfigures but c represent analysis with one-way ANOVA Bonferroni's post hoc.
Human HEK 293 cells stably expressing TRPV1 were a kind gift from Merck Research Laboratories (Whitehouse Station, N.J.). Cells were cultured in minimal essential medium, Eagle, modified with non-essential amino acids, 1 mM sodium pyruvate, 2 mM L-glutamine and 1.5 g/L sodium bicarbonate (ATCC, Mabassas, Va.), containing 1% Penicillin-streptomycin, and 10% foetal bovine serum. Cells were passaged three times a week using Trypsin-EDTA 1× (Invitrogen, Carlsbad, Calif.) and grown under 5% CO2 at 37° C.
Calcium imaging of HEK 293 cells. TRPV1, TRPV3, and TRPV4 expressing HEK293 cells were plated 24-48 h before imaging in 96 well plates, loaded with 3 μM Fura-2 AM and imaged as previously described [O'dell, D. K., Rimmerman, N., Pickens, S. R. & Walker J. M. Fatty acyl amides of endogenous tetrahydroisoquinolines are active at the recombinant human TRPV1 receptor. […] Med. Chem. 15, 6164-6169 (2007)].

Experiment [2] concerns closed head injury. Nature of the experiment: Object recognition test after CHI. The format is in vivo, mice. The method, then:
This effect was sustained from 24 h to 21 days following injury as determined by the Mann-Whitney test (n=9-10 per group; * p<0.01; **p<0.001, as compared to vehicle treated, at the same day). (B) Mice were subjected to the object recognition test (Example 6) 3, 7, 14 and 21 days after CHI. The absolute time spent exploring each of the two objects was recorded and the % time calculated. At baseline (bl), when presented with two identical objects, exploration time of each object was about 50% in both groups. In the test (T) situation, after one of the objects was replaced by a novel one the % time spent exploring the new object was calculated.
Memory function was assessed by ORT (Object Recognition Test) and the results are depicted in FIG. 5B. […] Both groups spent equal time at the two objects (˜50% of total exploration time) at the baseline measurements, at all times post CHI. […] At 21 days, it appears that the vehicle-treated mice regained their ability, and exploration time reached a similar level to that of the IA-treated mice.

Experiment [3] relates to immobility. Nature of the experiment: Porsolt forced swimming test. The format is in vivo, female Sabra mice. The settings on record: recorded over 9 minutes, 50 mg/kg i.p.
For experiment [4], the system named is cancer cells. Nature of the experiment: Cell proliferation test (MTT). The settings on record: three days. The format is cell-based. The method, then: In each MTT assay every concentration of the cytotoxic substance was tested in five replicates in microplate wells. Assays with every cell line were carried out in two to three repeated experiments. The inhibitory effect of various compounds was calculated as percentage inhibition in comparison with the values obtained in untreated wells to which vehicle (ethanol 0.5%) was added.
Aliquots (200 μL) of suspensions of cancer cells were dispensed into wells of 96-well tissue culture plates at densities of 0.02×10^6 cells/well. Various concentrations of IA were introduced into the wells, and their efficacy was tested three days after initiation of the cultures, using the 3-(4,5-dimethylthiazol-2-yl)-2,5-diphenyltetrazolium bromide (MTT) assay. The principle of this assay is that cells which survive following exposure to various compounds can reduce MTT to a dark -colored formazan, while dead cells are incapable of doing so. In each MTT assay every concentration of the cytotoxic substance was tested in five replicates in microplate wells. Assays with every cell line were carried out in two to three repeated experiments. The inhibitory effect of various compounds was calculated as percentage inhibition in comparison with the values obtained in untreated wells to which vehicle (ethanol 0.5%) was added.

The test system of experiment [5] is IκBα degradation. Nature of the experiment: IκBα degradation in TNFα-stimulated HeLa cells (Western blot). The format is cell-based. As to conditions: HeLa cells pre-incubated 2 hrs, then TNFα 20 ng/ml for 20 minutes. As for the experimental part:
HeLa cells were pre-incubated with IA (FIG. 1A) or IN (FIG. 1B) at the indicated concentrations for 2 hrs prior to 20 minutes exposure to TNFα (20 ng/ml). At least three more experiments were repeated with highest indicated dose, resulting similarly.
IκBα Degradation. HeLa cells were pre-incubated with IA (50 μg/ml, dissolved in ethanol) for 2 hrs, and then stimulated for 20 minutes with TNFα (20 ng/ml, Emeryville, Calif., USA). After removing the slides from plates for immonostaining (see below), proteins were extracted from remaining cells in the plates. Proteins were extracted from cells in NP-40 lysis buffer. Total protein concentration was determined using the Bradford method. Lysates were then analyzed either by Western blotting (WB).
Western Blot (WB). Following separation by SDS-PAGE, proteins were blotted to a polyvinylidene difluoride (PVDF) membrane (Millipore). The membrane was blocked in 5% (w/v) milk powder and then incubated in TBST containing the primary antibody and 2% (w/v) milk powder. All phospho-specific antibodies were purchased from Cell signaling Inc. αIκBa, αp65 and αCOX2 antibodies from Santa Cruz Inc. (California, USA). After binding of an appropriate secondary antibody coupled to horseradish peroxidase, proteins were visualized by enhanced chemiluminiscence according to the instructions of the manufacturer (Amersham Lifescience).
A general note: A western blot detects proteins with antibodies after separation by electrophoresis.

TRPV1, sequence (Q8NER1 whole entry): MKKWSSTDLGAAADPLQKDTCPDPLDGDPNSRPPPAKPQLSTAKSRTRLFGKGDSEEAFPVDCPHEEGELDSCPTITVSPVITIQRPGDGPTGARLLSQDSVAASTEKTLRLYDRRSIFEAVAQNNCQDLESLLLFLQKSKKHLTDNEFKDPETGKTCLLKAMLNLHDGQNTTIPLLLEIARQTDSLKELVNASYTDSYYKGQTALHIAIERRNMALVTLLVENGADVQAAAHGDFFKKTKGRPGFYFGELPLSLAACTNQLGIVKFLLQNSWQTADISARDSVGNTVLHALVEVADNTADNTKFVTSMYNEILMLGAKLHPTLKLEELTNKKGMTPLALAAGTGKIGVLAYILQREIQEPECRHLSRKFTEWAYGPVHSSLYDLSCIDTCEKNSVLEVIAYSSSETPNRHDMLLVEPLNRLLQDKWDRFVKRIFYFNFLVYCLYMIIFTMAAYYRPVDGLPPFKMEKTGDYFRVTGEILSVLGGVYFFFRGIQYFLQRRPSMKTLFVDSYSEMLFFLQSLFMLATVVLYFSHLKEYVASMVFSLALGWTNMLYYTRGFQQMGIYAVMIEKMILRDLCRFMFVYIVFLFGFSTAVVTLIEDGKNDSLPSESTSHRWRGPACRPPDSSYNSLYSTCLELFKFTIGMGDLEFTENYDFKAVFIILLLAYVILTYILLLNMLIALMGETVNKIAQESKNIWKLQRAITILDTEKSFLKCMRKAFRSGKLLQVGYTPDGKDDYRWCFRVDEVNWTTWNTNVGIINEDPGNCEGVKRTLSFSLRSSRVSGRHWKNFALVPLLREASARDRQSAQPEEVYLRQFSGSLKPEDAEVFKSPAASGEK

In the case of `CC(=O)OC1CC/C(C)=C/CC/C(C)=C/CC2(C(C)C)CCC1(C)O2` (centres unmarked) [IA, incensole acetate], the “calcium influx in TRPV1-transfected HEK293 cells” value in experiment [1] was “very small influx of calcium”. For the same compound, the “time exploring the new object, persistence of the effect” value in experiment [2] (7 and 14 days post injury) was “sustained for 7 and 14 days”. Besides, the “time exploring the new object” value in experiment [2] (3 days post injury, 50 mg/kg, P=0.01) was “significantly longer times exploring the new object”. The “memory function of naïve, non-injured mice” value in experiment [2] (non-injured mice, data not shown) is recorded as “not affected”. Further, the “immobility in the Porsolt forced-swim test” value in experiment [3] is “significantly reduced the immobility”. Moreover, in experiment [4], the “proliferation of cells, other cell lines (FIG. 11B)” value is reported as “no effect”. Also, the “proliferation of cells, several cell lines (FIG. 11A)” value in experiment [4] (hematopoetic cells) was “inhibited the proliferation of cells”. Moreover, the IκBα degradation entry in experiment [5] is listed as “inhibited IκBα degradation in a dose dependent manner”.

The values above are taken from US20100099756A1, “USES OF INCENSOLE, INCENSOLE ACETATE AND DERIVATIVES THEREOF” (YISSUM RESEARCH DEVELOPMENT COMPANY OF THE HEBREW …, priority 2006, published 2010).
